From patent US20080096894A1, “Anti-Bacterial Compounds” (ASTON UNIVERSITY, priority 2005, published 2008)
≈ marks a conversion by molar mass, not a printed value. Like-named read-outs stand apart in the source and are kept apart here. Values belong to the molecule of their own block, whether it stands above or below them.

Tests used:
MRSA = experiment: MIC, agar dilution, multipoint inoculator; type: cell-based, methicillin-resistant Staphylococcus aureus
Protocol: (§1) This activity was measured using a multipoint inoculator method as follows. The MIC for each compound was measured using an agar dilution method (Onda, H., et al., Int. J. Antimicrob. Agents. 18, 263 (2001)) (Mueller Hinton agar) by means of a multipoint inoculator delivering 10^4 colony forming units per spot.
‘Staph’ refers to the reference strain of S. aureus (NCTC 6571). A tick in the MRSA column refers to a positive zone against MRSA strain 96-7474, and the MIC range (in μg/ml) which follows is that found against a panel of ten MRSA strains. Where MIC values are given for MRSA, these are stated as a range of values, as testing was carried out on a panel of clinical isolates.

[1] = tested on: human mononuclear leucocytes (MNL, white blood cells); experiment: direct leucocyte toxicity, tryptan blue exclusion, 18 hours; type: cell-based
Protocol: The in vitro assay used human mononuclear leucocytes (MNL, white blood cells) which were incubated with the test compound for 18 hours and cell death determined by tryptan blue exclusion (tryptan blue is a dye, which stains dead cells, whilst living cells extrude it).
The toxicity of 4PYcq and the aldehyde cq and pyridine-4-carboxamidrazone precursors were assessed using the same in vitro assay with human mononuclear leucocytes as that described above. The toxicity of related compounds, 2-hydroxybenzylidene-pyridine-2-carboxamidrazone 4PYbw and benzylidenepyridine-2-carboxamidrazone 4PYaa were also examined.

S. aureus = experiment: MIC, agar dilution, multipoint inoculator; type: cell-based, Staphylococcus aureus; details: upper value of MIC reading
Protocol: as §1

S. epidemisis = experiment: MIC, agar dilution, multipoint inoculator; type: cell-based, Staphylococcus epidermidis; details: upper value of MIC reading
Protocol: as §1

E. faecalis = experiment: MIC, agar dilution, multipoint inoculator; type: cell-based; details: upper value of MIC reading
Protocol: as §1

S. haemolyticus = experiment: MIC, agar dilution, multipoint inoculator; type: cell-based; details: S. haemolyticus Isolate 1, upper value of MIC reading
Protocol: as §1

E. faecium = experiment: MIC, agar dilution, multipoint inoculator; type: cell-based, Enterococcus faecium; details: Enterococcus faecium, upper value of MIC reading, read-out: MIC
Protocol: as §1

[2] = panel of ten MRSA strains (clinical isolates)
[3] = Staphylococcus aureus, 18 h, S. aureus Cowan 1, read-out: MIC
[4] = Staphylococcus aureus, NCTC6571, 18 h, S. aureus NCTC 6571, read-out: MIC
[5] = Staphylococcus aureus, NCTC10788, 18 h, S. aureus NCTC 10788, read-out: MIC
[6] = Staphylococcus aureus, 18 h, MRSA Isolate 1, upper value of MIC reading, read-out: MIC
[7] = Staphylococcus aureus, 18 h, MRSA Isolate 2, upper value of MIC reading, read-out: MIC
[8] = Staphylococcus aureus, 18 h, MRSA Isolate 3, upper value of MIC reading, read-out: MIC
[9] = Staphylococcus aureus, 18 h, MRSA Isolate 4, upper value of MIC reading, read-out: MIC
[10] = Staphylococcus aureus, 18 h, MRSA Isolate 5, upper value of MIC reading, read-out: MIC
[11] = Staphylococcus aureus, 18 h, MRSA Isolate 6, upper value of MIC reading, read-out: MIC
[12] = Staphylococcus aureus, 18 h, MRSA Isolate 7, upper value of MIC reading, read-out: MIC
[13] = Staphylococcus aureus, 18 h, MRSA Isolate 8, upper value of MIC reading, read-out: MIC
[14] = Staphylococcus aureus, 18 h, MRSA Isolate 9, upper value of MIC reading, read-out: MIC
[15] = Staphylococcus aureus, 18 h, MRSA Isolate 10, upper value of MIC reading, read-out: MIC
[16] = Staphylococcus aureus, MRSA, 18 h, panel of ten MRSA strains (clinical isolates), read-out: MRSA MIC range
[17] = Staphylococcus epidermidis, 18 h, S. epidemisis Isolate 1, read-out: MIC
[18] = Staphylococcus epidermidis, NCTC11047, 18 h, S. epidemisis NCTC 11047, read-out: MIC
[19] = Staphylococcus haemolyticus, 18 h, read-out: MIC

SMILES: COc1ccc(C=NNc2ccccn2)c(O)c1 [HDcf]
MRSA MIC range (MRSA; [2]): 20 to 30 µg/mL

SMILES: NC(=NN=Cc1cc(O)c(O)cc1O)c1ccncc1 [Compound 4PYcc]
MRSA MIC range (MRSA; [2]): 20 to 30 µg/mL

SMILES: O=Cc1cccc2ccccc12 [al]
% Leucocyte Death ([1]; 1.0 mM, 18 hours): 9.2 ± 4.7%

SMILES: CN(C)c1ccc(C=NN=C(N)c2ccccn2)cc1 [Compound 2PYdq]
MRSA MIC range (MRSA; [2]): 128 to 256 µg/mL

SMILES: N/C(=N\N=C\c1ccccc1Sc1ccc(Cl)cc1)c1ccccn1 [Compound 2PYeh]
direct MNL toxicity (in words) [1]: indistinguishable from the background levels | % Leucocyte Death ([1]; human, 18 h, 0.1 mM): 3.7 ± 2.6%

SMILES: Cc1ccccc1C=NN=C(N)c1ccccn1 [Compound 2PYah]
MRSA MIC range (MRSA; [2]): 128 to 256 µg/mL

SMILES: NC(=NN=Cc1ccc(O)c(O)c1O)c1ccncc1 [Compound 4PYcb]
MRSA MIC range (MRSA; [2]): 30 to 40 µg/mL

SMILES: NC(=NN=Cc1cc([N+](=O)[O-])ccc1O)c1ccncc1 [Compound 4PYcj]
MRSA MIC range (MRSA; [2]): 20 to 30 µg/mL

SMILES: NC(=NN=Cc1ccc(O)c(O)c1O)c1cnccn1 [PZcb]
MIC (S. aureus; S. aureus Cowan 1): 256 µg/mL (≈ 937 µM) | MIC (S. aureus; S. aureus NCTC 6571): 256 µg/mL (≈ 937 µM) | MIC (S. aureus; S. aureus NCTC 10788): 256 µg/mL (≈ 937 µM) | MIC (MRSA; MRSA Isolate 1, upper value of MIC reading, in µg/mL): 256 | MIC (MRSA; MRSA Isolate 2, upper value of MIC reading, in µg/mL): 256 | MIC (MRSA; MRSA Isolate 3, upper value of MIC reading, in µg/mL): 256 | MIC (MRSA; MRSA Isolate 4, upper value of MIC reading, in µg/mL): 256 | MIC (MRSA; MRSA Isolate 5, upper value of MIC reading, in µg/mL): 256 | MIC (MRSA; MRSA Isolate 6, upper value of MIC reading, in µg/mL): 256 | MIC (MRSA; MRSA Isolate 7, upper value of MIC reading, in µg/mL): 256 | MIC (MRSA; MRSA Isolate 8, upper value of MIC reading, in µg/mL): 256 | MIC (MRSA; MRSA Isolate 9, upper value of MIC reading, in µg/mL): 256 | MIC (MRSA; MRSA Isolate 10, upper value of MIC reading, in µg/mL): 256 | MRSA MIC range (MRSA; [2]): 128 to 256 µg/mL | MIC (S. epidemisis; S. epidemisis NCTC 11047): 256 µg/mL (≈ 937 µM) | MIC (E. faecalis; E. faecalis Isolate 2): 256 µg/mL (≈ 937 µM) | MIC (E. faecalis; E. faecalis Isolate 3): 256 µg/mL (≈ 937 µM) | MIC (S. haemolyticus): 256 µg/mL (≈ 937 µM)

MIC (S. aureus; [3]): 8 µg/mL (≈ 21.8 µM) | MIC (S. aureus; [4]): 128 µg/mL (≈ 349 µM) | MIC (S. aureus; [5]): 16 µg/mL (≈ 43.6 µM) | MIC (MRSA; [6]): 16 µg/mL (≈ 43.6 µM) | MIC (MRSA; [7]): 16 µg/mL (≈ 43.6 µM) | MIC (MRSA; [8]): 16 µg/mL (≈ 43.6 µM) | MIC (MRSA; [9]): 16 µg/mL (≈ 43.6 µM) | MIC (MRSA; [10]): 16 µg/mL (≈ 43.6 µM) | MIC (MRSA; [11]): 16 µg/mL (≈ 43.6 µM) | MIC (MRSA; [12]): 64 µg/mL (≈ 174 µM) | MIC (MRSA; [13]): 32 µg/mL (≈ 87.2 µM) | MIC (MRSA; [14]): 16 µg/mL (≈ 43.6 µM) | MIC (MRSA; [15]): 16 µg/mL (≈ 43.6 µM) | MIC (MRSA; [16]): 8 to 64 µg/mL (≈ 21.8 to 174 µM) | MIC (S. epidemisis; [17]): 256 µg/mL (≈ 698 µM) | MIC (S. epidemisis; [18]): 256 µg/mL (≈ 698 µM)
SMILES: N/C(=N\N=C\c1ccccc1Sc1ccc(Cl)cc1)c1ccncc1 [Compound 4PYeh, N^1-[2-(4-chlorothiophenyl)benzylidene]-pyridine-4-carboxamidrazone]
MIC (S. haemolyticus; [19]): 256 µg/mL (≈ 698 µM)

MIC (S. aureus; [3]): 64 µg/mL (≈ 217 µM) | MIC (S. aureus; [4]): 64 µg/mL (≈ 217 µM) | MIC (S. aureus; [5]): 64 µg/mL (≈ 217 µM) | MIC (MRSA; [6]): 64 µg/mL (≈ 217 µM) | MIC (MRSA; [7]): 64 µg/mL (≈ 217 µM) | MIC (MRSA; [8]): 64 µg/mL (≈ 217 µM) | MIC (MRSA; [9]): 64 µg/mL (≈ 217 µM) | MIC (MRSA; [10]): 64 µg/mL (≈ 217 µM) | MIC (MRSA; [11]): 64 µg/mL (≈ 217 µM) | MIC (MRSA; [12]): 64 µg/mL (≈ 217 µM) | MIC (MRSA; [13]): 64 µg/mL (≈ 217 µM) | MIC (MRSA; [14]): 64 µg/mL (≈ 217 µM) | MIC (MRSA; [15]): 64 µg/mL (≈ 217 µM) | MIC (MRSA; [16]): 32 to 64 µg/mL (≈ 109 to 217 µM) | MIC (E. faecium; 18 h, E. faecium ACTCC 10541): 64 µg/mL (≈ 217 µM) | MIC (E. faecium; NCTC7171, 18 h, E. faecium NCTC 7171): 64 µg/mL (≈ 217 µM) | MIC (S. epidemisis; [17]): 64 µg/mL (≈ 217 µM) | MIC (S. epidemisis; [18]): 64 µg/mL (≈ 217 µM) | MIC (E. faecalis; Enterococcus faecalis, 18 h, E. faecalis EBH1, read-out: MIC): 64 µg/mL (≈ 217 µM) | MIC (E. faecalis; Enterococcus faecalis, 18 h, E. faecalis Isolate 1, read-out: MIC): 64 µg/mL (≈ 217 µM) | MIC (E. faecalis; Enterococcus faecalis, 18 h, E. faecalis Isolate 2, read-out: MIC): 64 µg/mL (≈ 217 µM) | MIC (E. faecalis; Enterococcus faecalis, 18 h, E. faecalis Isolate 3, read-out: MIC): 64 µg/mL (≈ 217 µM) | MIC (E. faecalis; Enterococcus faecalis, 18 h, E. faecalis Isolate 4, read-out: MIC): 128 µg/mL (≈ 435 µM) | MIC (E. faecalis; Enterococcus faecalis, 18 h, E. faecalis Isolate 5, read-out: MIC): 128 µg/mL (≈ 435 µM) | MIC (E. faecalis; Enterococcus faecalis, NCTC5957, 18 h, E. faecalis NCTC 5957, read-out: MIC): 64 µg/mL (≈ 217 µM)
SMILES: CCC(C)(C)c1ccc(/C=N/N=C(\N)c2ccncc2)cc1 [Compound 4PYaf, N^1-[4-(1,1-dimethylpropyl)benzylidene]-pyridine-4-carboxamidrazone]
MIC (S. haemolyticus; [19]): 64 µg/mL (≈ 217 µM)
